Data: patent US6486198B1, “Compounds and methods for the treatment of post traumatic stress disorder” (priority 1999, dated 2002)

Key:
[1] = test system: DSM-IV PTSD criterion B symptoms of nightmares and intrusions (intrusive recollections/flashbacks); experiment: Naturalistic add-on/monotherapy topiramate trial in chronic PTSD patients; patient self-report of partial/full response of nightmares and intrusions (LOCF); assay type: in vivo, human
Excerpt: Thirty five (35) patients meeting DSM-IV criteria for chronic post-traumatic stress disorder (PTSD) were selected for a study of the effects of topiramate administration. […] The group with hallucinatory PTSD experienced auditory and/or visual hallucinations containing content specifically associated with identified traumatic events. Whether these were PTSD “flashbacks” or psychotic experiences were at times difficult to ascertain due to fluctuations in reality testing the hallucinations. For this reason, prior to being screened for PTSD, some patients had received psychiatric diagnoses of psychotic disorders despite meeting full diagnostic criteria for PTSD.
Topiramate was added naturalistically to existing pharmacotherapy (see Table 1 for concomitant medications at start of trial), starting at 25 mglday and increasing whenever possible by 25 to 50 mg/day every 3 to 4 days to clinical response. Target symptoms were DSM-IV PTSD criterion B symptoms of nightmares (N =24) and intrusions (intrusive recollections/flashbacks, N=35) involving re-experiencing of traumas. Definitions of improvement, as assessed from patient self-report, included “partial response” as “definite reduction in intensity and frequency of nightmares or intrusions”, and “full response” as “complete cessation of nightmares and intrusions for a sustained period”. Following the seminal observations, in order to systematically identify responsive symptoms, the next 17 patients completed a self-report scale, the PTSD Checklist—Civilian Version (PCL-C)15, at baseline and at 4 weeks after starting topiramate. The patients were instructed to complete the PCL-C for experiences corresponding to traumas consistent with DSM-IV criterion A for PTSD. Paired ttest scores for the PCL-C were calculated with Jandel SigmaStat® v. 2.0.
Response assessment, summarized in Table 4, used the Last Observation Carried Forward (LOCF) method, which includes all patients who entered the trial and their last reported condition while under active treatment. Overall, topiramate suppressed nightmares in 79% of patients ([…]; 5/28 partially), and intrusions in 86% (22/35 fully; 8/35 partially). Globally (i.e., in terms of suppression of both nightmares and intrusions), 22 patients (63%) reported a full response and 8 patients (23%) a partial response. Five patients discontinued without response, 1 at 5 days, and the remaining 4 after 4 weeks. The non-hallucinatory subgroup achieved a higher response rate (full: 79%; full/partial: 89%). All full responses occurred in the non-hallucinatory subgroup. Benefit usually occurred within 2 to 3 days of reaching an effective dose. A full response to topiramate was reported for 10 patients within 1 week of treatment, and for 3 additional patients by the third week of treatment.

[2] = test system: seizures in rodent models of epilepsy; conditions: several rodent models; cited from earlier work
[3] = All Patients (N = 35), both nightmares and intrusions
[4] = All Patients (N = 35), both nightmares and intrusions, listed as topiramate
[5] = All Patients (N = 35), either nightmares or intrusions
[6] = All Patients (N = 35), either nightmares or intrusions, listed as topiramate
[7] = All Patients (N = 35), listed as topiramate
[8] = All Patients (N = 35), partial + full response
[9] = All Patients (N = 35), partial + full response, listed as topiramate
[10] = Non-Hallucinatory PTSD, Bipolar Disorder (N = 8)
[11] = Non-Hallucinatory PTSD, Bipolar Disorder (N = 8), listed as topiramate
[12] = Non-Hallucinatory PTSD, Non-Bipolar Disorder (N = 20)
[13] = Non-Hallucinatory PTSD, Non-Bipolar Disorder (N = 20), listed as topiramate
[14] = Patients with Hallucinatory PTSD (N = 7)
[15] = Patients with Hallucinatory PTSD (N = 7), listed as topiramate
[16] = Patients with Non-Hallucinatory PTSD, Total (N + 28)
[17] = Patients with Non-Hallucinatory PTSD, Total (N + 28), listed as topiramate

SMILES: CC1(C)O[C@@H]2[C@@H](CO[C@@]3(COS(N)(=O)=O)OC(C)(C)O[C@@H]23)O1 [Topiramate, 2,3:4,5-bis-O-(1-methylethylidene)-β-D-fructopyranose sulfamate]
- Share of partial responders with response at a dosage of 75 mg/day or less ([1]; 75 mg/day or less): 95%
- Share of full responders with response at a dosage of 100 mg/day or less ([1]; 100 mg/day or less): 91%
- Patients discontinued without response ([1]; 1 at 5 days, remaining 4 after 4 weeks): Five
- Dosage of topiramate, Full response, mean ± SD ([1]; All Patients (N = 35)): 78.6 mg/day
- Dosage of topiramate, Full response, median ([1]; All Patients (N = 35)): (50.0) mg/day
- Dosage of topiramate, Partial response (threshold dosage), mean ± SD ([1]; All Patients (N = 35)): 41.7 mg/day
- Dosage of topiramate, Partial response, median ([1]; All Patients (N = 35)): (25.0) mg/day
- Suppression of intrusions, Full (number of patients) ([1]; All Patients (N = 35)): 22
- Suppression of intrusions, Partial (number of patients) ([1]; All Patients (N = 35)): 8
- Suppression of nightmares, Full (number of patients) ([1]; All Patients (N = 35)): 14
- Suppression of nightmares, Partial (number of patients) ([1]; All Patients (N = 35)): 5
- Time to onset of response, Full, mean ± SD [1, 3]: 35.3 days
- Time to onset of response, Full, median [1, 3]: (8.0) days
- Time to onset of response, Full, mean ± SD [1, 4]: 35 ± 48.6 days
- Time to onset of response, Full, median [1, 4]: 8.0 days
- Time to onset of response, Partial, mean ± SD [1, 5]: 10.9 days
- Time to onset of response, Partial, median [1, 5]: (4.0) days
- Time to onset of response, Partial, mean ± SD [1, 6]: 11 ± 13.1 days
- Time to onset of response, Partial, median [1, 6]: 4.0 days
- Dosage of topiramate, Full response, mean ± SD [1, 7]: 79 ± 113.8 mg/day
- Dosage of topiramate, Full response, median [1, 7]: 50.0 mg/day
- Dosage of topiramate, Partial response (threshold dosage), mean ± SD [1, 7]: 42 ± 31.7 mg/day
- Dosage of topiramate, Partial response, median [1, 7]: 25.0 mg/day
- Suppression of intrusions (N = 35) [1, 8]: 86%
- Suppression of nightmares (N = 24) [1, 8]: 79%
- Suppression of intrusions (N = 35) [1, 9]: 86%
- Suppression of nightmares (N = 24) [1, 9]: 79%
- Dosage of topiramate, Full response, mean ± SD [1, 10]: 154.2 mg/day
- Dosage of topiramate, Full response, median [1, 10]: (37.5) mg/day
- Dosage of topiramate, Partial response (threshold dosage), mean ± SD [1, 10]: 58.3 ± 14.4 mg/day
- Dosage of topiramate, Partial response, median [1, 10]: (50.0) mg/day
- Suppression of intrusions (N = 35) [1, 10]: 88% (7/8)
- Suppression of intrusions, Full (number of patients) [1, 10]: 6
- Suppression of intrusions, Partial (number of patients) [1, 10]: 1
- Suppression of nightmares (N = 24) [1, 10]: 83% (5/6)
- Suppression of nightmares, Full (number of patients) [1, 10]: 4
- Suppression of nightmares, Partial (number of patients) [1, 10]: 1
- Time to onset of response, Full, mean ± SD [1, 10]: 43.3 ± 62.5 days
- Time to onset of response, Full, median [1, 10]: (6.0) days
- Time to onset of response, Partial, mean ± SD [1, 10]: 17.3 ± 13.5 days
- Time to onset of response, Partial, median [1, 10]: (17.0) days
- Dosage of topiramate, Full response, mean ± SD [1, 11]: 154 ± 200.9 mg/day
- Dosage of topiramate, Full response, median [1, 11]: 37.5 mg/day
- Dosage of topiramate, Partial response (threshold dosage), mean ± SD [1, 11]: 58 ± 14.4 mg/day
- Dosage of topiramate, Partial response, median [1, 11]: 50.0 mg/day
- Dosage of topiramate, Full response, mean ± SD [1, 12]: 48.3 mg/day
- Dosage of topiramate, Full response, median [1, 12]: (50.0) mg/day
- Dosage of topiramate, Partial response (threshold dosage), mean ± SD [1, 12]: 26.9 mg/day
- Dosage of topiramate, Partial response, median [1, 12]: (25.0) mg/day
- Suppression of intrusions (N = 35) [1, 12]: 90%
- Suppression of intrusions, Full (number of patients) [1, 12]: 16
- Suppression of intrusions, Partial (number of patients) [1, 12]: 2
- Suppression of nightmares (N = 24) [1, 12]: 85%
- Suppression of nightmares, Full (number of patients) [1, 12]: 10
- Suppression of nightmares, Partial (number of patients) [1, 12]: 1
- Time to onset of response, Full, mean ± SD [1, 12]: 32.1 days
- Time to onset of response, Full, median [1, 12]: (10.0) days
- Time to onset of response, Partial, mean ± SD [1, 12]: 8.6 days
- Time to onset of response, Partial, median [1, 12]: (3.5) days
- Dosage of topiramate, Full response, mean ± SD [1, 13]: 48 ± 25.4 mg/day
- Dosage of topiramate, Full response, median [1, 13]: 50.0 mg/day
- Dosage of topiramate, Partial response (threshold dosage), mean ± SD [1, 13]: 30 ± 11.2 mg/day
- Dosage of topiramate, Partial response, median [1, 13]: 25.0 mg/day
- Dosage of topiramate, Partial response (threshold dosage), mean ± SD [1, 14]: 70.0 ± 51.2 mg/day
- Dosage of topiramate, Partial response, median [1, 14]: (75.0) mg/day
- Suppression of intrusions (N = 35) [1, 14]: 71% (5/7)
- Suppression of intrusions, Full (number of patients) [1, 14]: 0
- Suppression of intrusions, Partial (number of patients) [1, 14]: 5
- Suppression of nightmares (N = 24) [1, 14]: 60% (3/5)
- Suppression of nightmares, Full (number of patients) [1, 14]: 0
- Suppression of nightmares, Partial (number of patients) [1, 14]: 3
- Time to onset of response, Partial, mean ± SD [1, 14]: 12.6 ± 15.7 days
- Time to onset of response, Partial, median [1, 14]: (7.0) days
- Dosage of topiramate, Partial response (threshold dosage), mean ± SD [1, 15]: 70.0 ± 51.2 mg/day
- Dosage of topiramate, Partial response, median [1, 15]: 75.0 mg/day
- Time to onset of response, Partial, mean ± SD [1, 15]: 13 ± 15.7 days
- Time to onset of response, Partial, median [1, 15]: 7.0 days
- Dosage of topiramate, Full response, mean ± SD [1, 16]: 78.6 mg/day
- Dosage of topiramate, Full response, median [1, 16]: (50.0) mg/day
- Dosage of topiramate, Partial response (threshold dosage), mean ± SD [1, 16]: 32.8 mg/day
- Dosage of topiramate, Partial response, median [1, 16]: (25.0) mg/day
- Suppression of intrusions (N = 35) [1, 16]: 89%
- Suppression of intrusions, Full (number of patients) [1, 16]: 22
- Suppression of intrusions, Partial (number of patients) [1, 16]: 3
- Suppression of nightmares (N = 24) [1, 16]: 84%
- Suppression of nightmares, Full (number of patients) [1, 16]: 14
- Suppression of nightmares, Partial (number of patients) [1, 16]: 2
- Time to onset of response, Full, mean ± SD [1, 16]: 35.3 days
- Time to onset of response, Full, median [1, 16]: (8.0) days
- Time to onset of response, Partial, mean ± SD [1, 16]: 10.3 days
- Time to onset of response, Partial, median [1, 16]: (4.0) days
- Time to onset of response, Partial, mean ± SD [1, 17]: 10 ± 12.7 days
- Time to onset of response, Partial, median [1, 17]: 4.0 days
- Global full response rate (suppression of both nightmares and intrusions) ([1]; all 35 patients): 63%
- Global full response, number of patients ([1]; all 35 patients): 22 patients
- Global partial response rate ([1]; all 35 patients): 23%
- Global partial response, number of patients ([1]; all 35 patients): 8 patients
- Response rate, full/partial ([1]; all patients): 86%
- Additional patients reporting a full response by the third week of treatment ([1]; by the third week): 3 patients
- Response rate, full ([1]; hallucinatory group): 0%
- Response rate, partial ([1]; hallucinatory group): 83%
- Response rate, full ([1]; non-hallucinatory subgroup): 79%
- Response rate, full/partial ([1]; non-hallucinatory subgroup): 89%
- Patients reporting a full response within 1 week of treatment ([1]; within 1 week of treatment): 10 patients
- Seizure block in rodent models of epilepsy [2]: effectively block seizures
